The target in one test is T1, LSD2 (Homo sapiens, UniProt Q8NB78).
T1 sequence (Q8NB78 1-822): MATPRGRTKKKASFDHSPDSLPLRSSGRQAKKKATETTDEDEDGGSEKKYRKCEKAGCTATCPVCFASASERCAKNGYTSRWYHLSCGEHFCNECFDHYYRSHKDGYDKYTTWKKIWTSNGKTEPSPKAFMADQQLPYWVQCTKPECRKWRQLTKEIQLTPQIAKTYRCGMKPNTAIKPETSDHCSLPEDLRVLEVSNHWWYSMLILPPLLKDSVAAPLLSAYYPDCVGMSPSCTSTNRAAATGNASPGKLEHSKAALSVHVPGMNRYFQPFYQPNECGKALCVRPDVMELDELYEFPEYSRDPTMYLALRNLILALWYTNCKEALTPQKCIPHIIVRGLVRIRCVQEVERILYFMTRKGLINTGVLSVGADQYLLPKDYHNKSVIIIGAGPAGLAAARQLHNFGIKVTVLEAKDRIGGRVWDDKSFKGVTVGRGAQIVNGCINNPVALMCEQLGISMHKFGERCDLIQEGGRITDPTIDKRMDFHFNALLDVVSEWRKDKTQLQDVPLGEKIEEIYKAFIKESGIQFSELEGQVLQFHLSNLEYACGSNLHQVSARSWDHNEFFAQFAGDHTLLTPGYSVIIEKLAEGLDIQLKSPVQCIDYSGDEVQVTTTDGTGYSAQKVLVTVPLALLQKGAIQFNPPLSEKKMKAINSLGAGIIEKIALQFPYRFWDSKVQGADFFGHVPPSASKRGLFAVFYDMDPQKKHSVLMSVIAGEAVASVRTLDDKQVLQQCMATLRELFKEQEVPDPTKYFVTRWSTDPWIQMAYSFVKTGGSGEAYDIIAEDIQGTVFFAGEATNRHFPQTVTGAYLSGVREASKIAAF
Description: LSD2 A-screen (AlphaScreen) demethylase enzymatic assay. It is filed as biochemical. The following applies: 50 μM compound, approximate values; for inhibition at 50 µM: read-out: Potency LSD-2 % Inhibition at 50 μM. On the procedure: (§1) Enzymatic activities of compounds of the present disclosure can be tested with recombinant human LSD using an in vitro enzymatic assay to determine the ability of the compounds of the present disclosure to inhibit LSD-1 and LSD2. Examples of the assay are provided below.
(§2) All of the enzymatic reactions were conducted in duplicate at room temperature for 60 minutes in a 10 μL mixture containing assay buffer, histone H3 peptide substrate, demthylase enzyme, and the test compound. These 10 μL reactions were carried out in wells of a 384-well Optiplate (PerkinElmer). The dilution of the compounds was first performed in 100% DMSO with the highest concentration at 5 mM Each intermediate compound dilution (in 100% DMSO) was then directly diluted 30× fold into assay buffer for 3.3× concentration (DMSO). […] From this intermediate step, 3 μL of compound was added to 4 μL of demethylase enzyme dilution was incubated for 30 minutes at room temperature. After this incubation, 3 μL of peptide substrate was added. The final DMSO concentration was 1%. After enzymatic reactions, 5 μL of anti-Mouse or anti-Rabbit Acceptor beads (PerkinElmer, diluted 1:500 with 1× detection buffer) and […] (BPS, diluted 1:800 with 1× detection buffer) were added to the reaction mix. After brief shaking, the plate was incubated for 30 minutes. Finally, 10 μL of AlphaScreen™ Streptavidin-conjugated donor beads (Perkin, diluted 1:125 with 1× detection buffer) were added. After 30 minutes, the samples were measured in an AlphaScreen microplate reader (EnSpire Alpha 2390 Multilabel Reader, Perkin Elmer).
(§3) Enzyme activity assays were performed in duplicates at each concentration. The A-screen intensity data were analyzed and compared. In the absence of the compound, the intensity in each data set was defined as 100% (Ce) activity. In the absence of enzyme, the intensity in each data set was defined as 0% (C0) activity. The percent activity in the presence of each compound was calculated according to the following equation: % activity=(C−C0)/(Ce−C0), where C=the intensity in the presence of the compound.
(§4) The value of percent activity versus a series of compound concentrations was then plotted using non-linear regression analysis of Sigmoidal dose-response curve generated with the equation Y=B+(T−B)/1+10((LogEC50−X)×Hill Slope), where Y=percent activity, B=minimum percent activity, T=maximum percent activity, X=logarithm of compound and Hill Slope=slope factor or Hill coefficient. The IC50 value was determined by the concentration causing a half-maximal percent activity.

The next test concerns the target GSK3β (Homo sapiens, UniProt P49841). Description: GSK3β in vitro enzymatic assay (Kinase-Glo Max luminescence). The test is classed as biochemical. The following applies: recombinant human GSK3, 10 μM ATP; approximate values; read-out: Potency GSK3beta. As to the method:
(§5) Enzymatic activities of compounds of the present disclosure can be tested using recombinant human GSK3 in an in vitro enzymatic assay to determine the ability of the compounds of the present disclosure to inhibit GSK3α and GSK3β.
(§6) The assay was performed using Kinase-Glo® Max luminescence kinase assay kit (Promega). The assay measures kinase activity by quantitating the amount of ATP remaining in solution following a kinase reaction. The luminescent signal from the assay is correlated with the amount of ATP present and is inversely correlated with the amount of kinase activity.
(§7) To perform the assay, compounds were diluted in 10% DMSO and 5 μl of the dilution was added to a 50 μl reaction so that the final concentration of DMSO was 1% in all of reactions. The enzymatic reactions were conducted at 30° C. for 40 minutes. The 50 μl reaction mixture contained 40 mM Tris, pH 7.4, 10 mM MgCl2, 0.1 mg/ml BSA, 2 mM DTT, 0.1 mg/ml GSK tide substrate, 10 uM ATP and GSK3. After the enzymatic reaction, 50 μl of Kinase-Glo Max Luminescence kinase assay solution (Promega) was added to each reaction and plates were incubated for 15 minutes at room temperature. Luminescence signal was measured using a BioTek Synergy 2 microplate reader.
(§8) Kinase activity assays were performed in duplicate at each concentration. The luminescence data were analyzed using the computer software, GraphPad Prism. The difference between luminescence intensities in the absence of Kinase (Lut) and in the presence of Kinase (Luc) was defined as 100% activity (Lut-Luc). Using luminescence signal (Lu) in the presence of the compound, percent activity was calculated as: % activity={(Lut-Lu)/(Lut-Luc)}×100%, where Lu=the luminescence intensity in the presence of the compound (all percent activities below zero were shown zero in the table).
(§9) The values of percent activity versus a series of compound concentrations were then plotted using non-linear regression analysis of Sigmoidal dose-response curve generated with the equation Y=B+(T−B)/1+10((LogEC50−X)×Hill Slope), where Y=percent activity, B=minimum percent activity, T=maximum percent activity, X=logarithm of compound and Hill Slope=slope factor or Hill coefficient. The ICs, value was determined by the concentration causing a half-maximal percent activity.

The target in another test is LSD-1 (Homo sapiens, UniProt O60341). Description: LSD-1 A-screen (AlphaScreen) demethylase enzymatic assay. The test is classed as biochemical. The following applies: approximate values; for inhibition at 50 µM: read-out: Potency LSD-1 % Inhibition at 50 μM. On the procedure: as §1, §2, §3, §4
Another test deals with GSK3α (Homo sapiens, UniProt P49840). Description: GSK3α in vitro enzymatic assay (Kinase-Glo Max luminescence). It is filed as biochemical. The following applies: recombinant human GSK3, 10 μM ATP; approximate values; read-out: Potency GSK3alpha. As to the method:
as §5, §6, §7, §8, §9

For test [1], the system named is Lgr5+ cells (cochlear stem cells). Description: Lgr5+ assay: expansion of Lgr5-positive cochlear cells in 3D culture. The test is classed as cell-based, mouse. The text has this: “Stem Cell Proliferation Assay” as used herein is an assay to determine the capacity for agent(s) to induce the creation of stem cells from a starting cell population. In an exemplary Stem Cell Proliferation Assay, the number of cells for an initial cell population is harvested from a Lgr5-GFP mouse such as a B6.129P2-Lgr5tm1(cre/ERT2)Cle/J mouse (also known as Lgr5-EGFP-IRES-creERT2 or Lgr5-GFP mouse, Jackson Lab Stock No: 008875) between the age of 3 to 7 days, by isolating the organ of Corti sensory epithelium and dissociating the epithelium into single cells. Approximately 5000 cells are entrapped in 40 μl of culture substrate (for example, Matrigel (Corning, Growth Factor Reduced)) and placed at the center of wells in a 24-well plate with 500 μl of an appropriate culture media, growth factors and agent being tested. Appropriate culture media and growth factors include Advanced DMEM/F12 with media supplements (1×N2, 1×B27, 2 mM Glutamax, 10 mM HEPES, 1 mM N-acetylcysteine, and 100 U/ml penicillin/100 μg/ml streptomycin) and growth factors (50 ng/ml EGF, 50 ng/ml bFGF, and 50 ng/ml IGF-1) as well as the agent(s) being assessed are added into each well. Cells are cultured for 10 days in a standard cell culture incubator at 37° C. and 5% CO2, with media change every 2 days. The number of Lgr5^+ cells is quantified by counting the number of cells identified as Lgr5+ in an in vitro Lgr5 activity assay (i.e., an assay mearing in vitro Lgr5 activity). The fraction of cells that are Lgr5^+ is quantified by dividing the number of cells identified as Lgr5^+ in a cell population by the total number of cells present in the cell population. The average Lgr5^+ activity of a population is quantified by measuring the average mRNA expression level of Lgr5 of the population normalized using suitable and unregulated references or housekeeping genes (e.g., Hprt). The number of hair cells in a population may be measured by staining with hair cell marker (e.g., MyosinVIIa), or using an endogenous reporter of hair cell genes (e.g., Pou4f3-GFP, Atoh1-nGFP) and analyzing using flow cytometry. The fraction of cells that are hair cells is quantified by dividing the number of cells identified as hair cells in a cell population by the total number of cells present in the cell population. Lgr5 activity can be measured by qPCR.
The compounds of the present disclosure were used in Lgr5-EGFP-IRES-Cre-ER mice (Barker et al., 2007) to analyze the effects of small molecules on cochlear stem cell expansion.
Isolation of stem cells from the inner ear: All animal studies were conducted under an approved institutional protocol according to National Institutes of Health guidelines. For experiments with neonatal mice (postnatal days 1-3), the cochleae were dissected in Hank's Balanced Salt Solution (HBSS) and the organs of Corti were separated from the stria vascularis and the modiolus. The organs of Corti were then treated with Cell Recovery Solution (Corning) for 1 hour to separate cochlear epithelium from the underlying mesenchyme. Epithelia were then collected and treated with TrypLE (Life Technologies) for 15-20 minutes at 37° C. Single cells obtained by mechanical trituration were filtered (40 μm) and suspended in Matrigel® (Corning) for 3D culture.
Cells were cultured in a 1:1 mixture of DMEM and F12, supplemented with Glutamax (GIBCO), N2, B27 (Invitrogen), EGF (50 ng/ml; Chemicon), bFGF (50 ng/ml; Chemicon), IGF1 (50 ng/ml; Chemicon) and the composition provided herein. Medium was changed every other day.
Lgr5-positive cells were quantified after 10 days (D10) in culture in multiple conditions. Cell colonies were dissociated into single cells using TrypLE (Gibco). The cells were then stained with propidium iodide (P1) and were analyzed using a flow cytometer for Lgr5-GFP expression. The number of GFP-positive cells and the percentage of GFP-positive cells were quantified. […]

Setting [2] is: in a background of growth factors, compared to CHIR-99021 and its combinations (figures).

Chain of GSK3α (P49840 whole entry): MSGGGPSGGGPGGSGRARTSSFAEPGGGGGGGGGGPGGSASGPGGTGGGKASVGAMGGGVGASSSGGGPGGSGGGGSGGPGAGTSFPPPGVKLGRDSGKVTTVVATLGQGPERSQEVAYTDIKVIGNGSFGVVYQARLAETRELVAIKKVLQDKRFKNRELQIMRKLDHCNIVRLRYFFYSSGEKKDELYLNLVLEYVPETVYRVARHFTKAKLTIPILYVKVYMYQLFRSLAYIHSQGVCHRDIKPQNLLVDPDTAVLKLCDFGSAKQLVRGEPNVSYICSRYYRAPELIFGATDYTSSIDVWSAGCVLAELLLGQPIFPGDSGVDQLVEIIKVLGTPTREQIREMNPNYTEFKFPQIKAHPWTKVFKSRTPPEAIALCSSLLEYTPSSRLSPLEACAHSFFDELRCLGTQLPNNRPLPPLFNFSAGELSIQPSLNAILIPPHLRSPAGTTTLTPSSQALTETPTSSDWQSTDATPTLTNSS
Chain of GSK3β (P49841 whole entry): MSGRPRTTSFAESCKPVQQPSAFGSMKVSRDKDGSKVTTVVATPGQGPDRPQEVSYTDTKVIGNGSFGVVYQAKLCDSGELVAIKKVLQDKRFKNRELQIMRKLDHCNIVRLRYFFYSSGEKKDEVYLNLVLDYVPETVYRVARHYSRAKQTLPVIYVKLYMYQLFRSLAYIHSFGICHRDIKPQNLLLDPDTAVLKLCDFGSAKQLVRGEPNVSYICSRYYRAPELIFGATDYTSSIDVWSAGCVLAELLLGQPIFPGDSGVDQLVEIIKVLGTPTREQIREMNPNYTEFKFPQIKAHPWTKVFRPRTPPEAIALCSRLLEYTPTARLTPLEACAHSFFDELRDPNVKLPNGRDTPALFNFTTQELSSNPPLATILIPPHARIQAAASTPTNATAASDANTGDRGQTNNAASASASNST

As to `Nc1c(F)c(NCCN[C@@H]2C[C@H]2c2ccccc2)cc2c1c(=O)c(C(=O)O)cn2CCO` (relative stereo) [Compound I-90], at LSD2, the inhibition at 50 µM worked out at 8%. For the same compound, the IC50 on GSK3β came to 1.6 µM; on LSD-1 (read-out: Potency LSD-1 IC50) it was 8.5 µM; at GSK3α, 0.99 µM.
On to `CCn1cc(C(=O)O)c(=O)c2c(N)c(F)c(N[C@@H]3C[C@H]3c3ccccc3)cc21` (relative stereo) [Compound I-20], for which the “Potency (Lgr5+ activity)” value in test [1] (effective concentration for Lgr5+ expansion, 10 days culture with EGF, bFGF, IGF1, approximate values) came to 1.1 µM. Besides, in test [1] (setting [2]), the “Lgr5 GFP+ progenitor cell proliferation (Lgr5 positive cell count)” value is “generate Lgr5 GFP+ progenitor cell proliferation” and the “enrichment of Lgr5 GFP+ cochlear progenitor cells (percent of Lgr5 positive cells)” value is “generates enrichment of Lgr5 GFP+ cochlear progenitor cells”.
As for `CCn1cc(C(=O)O)c(=O)c2c(F)cc(NCc3ccccc3)cc21` [Compound I-55], the IC50 at GSK3β and on GSK3α was greater than 10 µM throughout.
For the compound `CCn1cc(C(=O)O)c(=O)c2c(N)cc(NC3CCCCC3)cc21` [Compound I-58], the inhibition at 50 µM was found to be 7% on LSD2 and 77% on LSD-1 (50 μM compound). Moreover, the IC50 on GSK3β and on GSK3α was greater than 10 µM in each case.
Take `CCn1cc(C(=O)O)c(=O)c2c(N)cc(NCCc3ccccc3)cc21` [Compound I-56]: the inhibition at 50 µM at LSD2 was 28%; on LSD-1 (50 μM compound) it was 56%. Further, the IC50 on GSK3β and at GSK3α was greater than 10 µM in each case.
As for `CCn1cc(C(=O)O)c(=O)c2c(N)c(F)c(N[C@@H]3C[C@H]3c3ccccc3)cc21` (single isomer, unassigned) [Compound I-63], on LSD2 (50 µM), the “Potency LSD-2 % Inhibition at 50 μM” value is listed as 6%. Further, the IC50 at GSK3β and on GSK3α was greater than 10 µM in each case. For the same compound, at LSD-1 (50 μM compound, 50 µM), the “Potency LSD-1 % Inhibition at 50 μM” value is reported as 26% @ 50 μM.
Take `CCn1cc(C(=O)O)c(=O)c2c(N)cc(NC3CCCCC3)c(F)c21` [Compound I-64]: the inhibition at 50 µM at LSD2 came to 2%; on LSD-1 (50 μM compound) it was 72%. The IC50 at GSK3β and at GSK3α was greater than 10 µM in each case.
As for `CCn1cc(C(=O)O)c(=O)c2c(N)c(F)c(OCCc3ccccc3)cc21` [Compound I-52], the inhibition at 50 µM at LSD2 stood at 3%; at LSD-1 (50 μM compound), 0%. Also, the IC50 at GSK3β and at GSK3α was greater than 10 µM each time.
